Kd data for eleven molecules are collected here from paper PMC3388095, “Fluorophore Labeled Kinase Detects Ligands That Bind within the MAPK Insert of p38α Kinase” (PLoS ONE, 2012).

The target in this assay is T1, p38α MAPK insert (Homo sapiens, UniProt Q16539, C119S/C162S/S252C).
T1 construct: His-tag with PreScission Protease cleavage site (N); made in house; host or cells: E. coli BL21(DE3) Codon+RIL
Description: FLiK direct binding assay, acrylodan-labeled p38α (S252C) MAPK insert / lipid binding site. The settings on record: binding to p38α MAPK insert. The procedure: The human p38α kinase construct containing the mutations required for specific labeling (C119S/C162S/S252C) as well as wild type p38α were cloned into a pOPINF vector and transformed as an N-terminal His-tag construct with a PreScission Protease cleavage site into BL21(DE3) Codon+RIL E. coli. Protein expression, purification, fluorophore labeling and verification of mono-labeling of the kinase were performed essentially as described previously. Labeling of the mutant p38α protein with thiol-reactive acrylodan was carried out by adding a 1.5∶1 molar excess of the fluorophore (dissolved in DMSO) to the purified protein in 50 mM Hepes Buffer (pH 7.0). The mixture was allowed to react in the dark overnight at 4°C. Unreacted acrylodan was subsequently removed by three cycles of buffer exchange into FLiK Measurement Buffer (50 mM Hepes Buffer, pH 7.4+200 mM NaCl) using a 10k-MWCO Centricon. The protein was concentrated to ∼200 μM, aliquoted and frozen at −80°C. Mono-labeling of the protein was verified by ESI-MS as described previously, [24].
Characterization of the fluorescence response of MAP insert-labeled p38α was carried out as described previously for p38α labeled on the activation loop. […] Briefly, a polystyrene cuvette containing a suspension of 50 nM acrylodan-labeled p38α in FLiK Buffer was excited at 386 nm and emission spectra were measured in the absence and presence of increasing concentrations of 1b. The compound was dissolved in 100% DMSO and delivered in sequential small doses to a single sample. […] Ratiometric fluorescence readouts are advantageous in that they provide an internal correction for small errors in sample volume which can affect signal intensity. All measurements of the cuvettes were made with a JASCO FP-6500 fluorescence spectrophotometer (JASCO GmbH, Germany).
The assay was adapted to high-throughput screening formats which enabled KD values to be determined in black small volume assay plates. Briefly, a dilution series of each compound was first prepared in 100% DMSO at 20X the desired final concentration and 1 μL was transferred to the assay plate. Compounds were then mixed with 19 µL of FLiK Buffer (supplemented with 0.01% Triton X-100) containing acrylodan-labeled p38α (100 nM). The final concentration of compound in the dilution series ranged from 0–50 μM (5% v/v DMSO final). Plates were covered with an adhesive aluminum foil and incubated for 30 min at RT prior to measurement of emission intensities at 470 and 520 nm using a Tecan Safire^2 plate reader. […] Binding curves were plotted using the ratio R = I520/I470 to determine the KD.

Where [1] appears, read: ratiometric acrylodan emission, each concentration in triplicate.

T1 sequence (Q16539 whole entry C119S/C162S/S252C): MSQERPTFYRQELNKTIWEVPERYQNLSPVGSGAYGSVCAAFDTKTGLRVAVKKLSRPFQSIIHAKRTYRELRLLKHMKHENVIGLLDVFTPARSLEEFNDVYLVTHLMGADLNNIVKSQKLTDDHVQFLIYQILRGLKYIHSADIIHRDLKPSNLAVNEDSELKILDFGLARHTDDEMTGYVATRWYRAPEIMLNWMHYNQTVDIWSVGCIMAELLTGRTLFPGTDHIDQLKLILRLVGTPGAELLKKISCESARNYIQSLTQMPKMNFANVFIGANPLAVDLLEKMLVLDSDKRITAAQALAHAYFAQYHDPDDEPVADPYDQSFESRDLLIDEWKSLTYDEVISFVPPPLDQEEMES

Under setting [1], `O=[N+]([O-])c1ccc2c(NC3CC3)nc(-c3ccccc3)nc2c1` [1a, N-Cyclopropyl-7-nitro-2-phenyl-4-quinazolinamine] gave a dissociation constant (Kd) of 1900 ± 200 nM.
The same measure, in the same setting: the figure for `O=[N+]([O-])c1ccc2c(NC3CC3)nc(-c3ccncc3)nc2c1` [5a, N-Cyclopropyl-7-nitro-2-(4-pyridinyl)-4-quinazolinamine] is > 10000 nM; for `Nc1ccc2c(NC3CC3)nc(-c3ccncc3)nc2c1` [5b, N^4-Cyclopropyl-2-(4-pyridinyl)-4,7-quinazolinediamine] it is > 50000 nM.
Take `O=[N+]([O-])c1ccc2c(NCC3CC3)nc(-c3ccccc3)nc2c1` [6a, N-(Cyclopropylmethyl)-7-nitro-2-phenyl-4-quinazolinamine]: the Kd under setting [1] stood at 460 ± 210 nM.
On the same count and under the same terms, the figure for `Nc1ccc2c(NCC3CC3)nc(-c3ccccc3)nc2c1` [6b, N^4-(Cyclopropylmethyl)-2-phenyl-4,7-quinazolinediamine] is 4700 ± 700 nM.
Under setting [1], `O=[N+]([O-])c1ccc2c(NCc3ccccc3)nc(-c3ccccc3)nc2c1` [7a, N-Benzyl-7-nitro-2-phenyl-4-quinazolinamine] came in with a dissociation constant Kd of 320 ± 90 nM.
The same measure, in the same setting: next, `Nc1ccc2c(NCc3ccccc3)nc(-c3ccccc3)nc2c1` [7b, N^4-Benzyl-2-phenyl-4,7-quinazolinediamine]: 2200 ± 800 nM.
As for `O=[N+]([O-])c1ccc2c(NCc3ccccc3)nc(-c3ccncc3)nc2c1` [7c, N-Benzyl-7-nitro-2-(4-pyridinyl)-4-quinazolinamine], the affinity under setting [1], expressed as Kd, was 810 ± 100 nM.
As to `O=[N+]([O-])c1ccc2c(NCCc3ccccc3)nc(-c3ccccc3)nc2c1` [8a, 7-Nitro-2-phenyl-N-(2-phenylethyl)-4-quinazolinamine], the affinity (value as printed in text), expressed as Kd, was 280 nM.
The molecule `Nc1ccc2c(NCCc3ccccc3)nc(-c3ccccc3)nc2c1` [8b, 2-Phenyl-N^4-(2-phenylethyl)-4,7-quinazolinediamine] showed a Kd under setting [1] of 1200 ± 300 nM.
The same measure, in the same setting: the figure for `O=[N+]([O-])c1ccc2c(NCCc3ccccc3)nc(-c3ccncc3)nc2c1` [8c, 7-Nitro-N-(2-phenylethyl)-2-(4-pyridinyl)-4-quinazolinamine] is 1800 ± 300 nM.
